Among the data in ChEMBL document CHEMBL1135897, “Design and synthesis of a novel L-dopa-entacapone codrug” (J Med Chem, 2002) are half-life values, retold here.

Series [1] is described as follows: The half-life period, to be stable in the stomach and liver at pH 5.0, was determined. The class given is ADME, tissue-based.
Series [2] is described as follows: Half-life period for the hydrolysis to entacopone and […] was determined in a liver homogenate at pH 7.4. Type of series: ADME, tissue-based.

SMILES strings stand for the structures.

As to `CCN(CC)C(=O)/C(C#N)=C/c1cc(OC(=O)N[C@@H](Cc2ccc(O)c(O)c2)C(=O)OC)c(O)c([N+](=O)[O-])c1`, the half-life in series [1] was found to be 66 min; in series [2], 7 min.
